The structures appear in SMILES notation.

Common to all, as to type: in vivo, Sprague-Dawley rats
For experiment [1], the system named is ventral prostate weight. Briefly: Subcutaneous androgenic potency, ventral prostate weight assay in orchidectomized immature rats (injection daily for seven days). As to conditions: ventral prostate weight assay following subcutaneous administration; alcohol of G = 1.0 (assigned); value is for the free alcohol of the listed ester. The method, then: (§1) Immature (about 21-day-old) Sprague-Dawley rats were orchidectomized under anesthesia, and randomly assignee to groups of ten animals for each dose level of the active undergoing testing. Each active was dissolved in 10% ethanol/sesame oil and administered by gavage (oral) or subcutaneous injection each day for seven days beginning on the date of the orchidectomy. The animals were sacrificed 24 hours after the last dose, and the ventral prostate and seminal vesicles were excised, cleaned of fat and connective tissue, blotted on moist filter paper and weighed to the nearest 0.1 mg. Regression analysis was performed by conventional methods using a PROPHET data management system. Ventral prostate weight was used as the endpoint because it is the sensitive organ to androgenic stimulation.
as §1, with “by” for “by gavage (oral) or”, “mg. See, e.g., Hershberger, L. et al, Myotrophic Activity of 19-nortestosterone And Other Steroids Determined By Modified Levator And Muscle Method, Proc. Soc. Exptl. Bid. Med. 83 175–180 (1953).” for “mg.”, “system. See, e.g., Bliss, C., The Statistics of Bioassay (Academic Press, New York, 1952); Hollister, C., Nucleic Acids Res. 16 1873–75 (1988).” for “system.”
Immature (about 22-day-old) Sprague-Dawley male rats were orchidectomized under anesthesia, and randomly assignee to groups of ten animals for each dose level of the active undergoing testing. […] Illumination was controlled for 14 hour periods of light and 10 hours of darkness.
Each active was administered by subcutaneous injection of 0.6 mg of test material in aqueous suspending vehicle (ASV) and/or an oily vehicle (10% ethanol/sesame oil) on the day of surgery. Testosterone enanthate in sesame oil was used as a standard. The ventral prostate and seminal vesicles were excised, cleaned of fat and connective tissue, blotted on moist filter paper and weighed to the nearest 0.1 mg. Regression analysis was performed by conventional methods using a PROPHET data management system. Ventral prostate weight was used as the endpoint because it is the sensitive organ to androgenic stimulation.

Experiment [2] has as its system ventral prostate weight. Briefly: Duration of androgenic activity after subcutaneous injection, ventral prostate weight over weeks in orchidectomized immature rats. As to conditions: for area under the curve (AUC, trapezoidal rule) of ventral prostate weight: 12 week period, FIG. 22. The method, then:
as §1, with “was” for “was dissolved in 10% ethanol/sesame oil and”, “by” for “by gavage (oral) or”
Except for testosterone enanthate, each active was formulated in two different carriers: (1) an aqueous suspension and (2) in sesame oil. Testosterone enanthate was formulated using the sesame oil carrier only, because it exists as a liquid at room temperature and could not therefore be formulated as an aqueous suspension.
The carrier used to provide the aqueous suspension was formulated as follows: 1 g benzyl alcohol, 0.5 g sodium carboxylethyl cellulose 50, 0.376 g disodium hydrogen phosphate dihydrate, 1.495 g sodium dihydrogen phosphate dihydrate, with water for injection (WFI) being added to bring volume of the carrier up to 100 ml.
Each formulation was prepared at a concentration of 0.6 mg/0.2 ml.
Immature (about 21-day-old) Sprague-Dawley rats were orchidectomized under anesthesia, and randomly assignee to groups of 40 or more. Animals received a single subcutaneous injection of 0.6 mg of each ester in 0.2 ml of an aqueous suspending carrier and/or oily carrier (10% ethanol/90% sesame oil or ethyl oleate) on the date of the orchidectomy. In cases where the ester was not solid at room temperature, 10% ethanol/sesame oil or ethyl oleate was used as the carrier. In this example, the carrier used to provide the aqueous suspension was formulated as follows: 1 g benzyl alcohol, 0.5 g sodium carboxylethyl cellulose 50, 0.376 g disodium hydrogen phosphate dihydrate, 1.495 g sodium dihydrogen phosphate dihydrate, with water for injection (WFI) being added to bring volume of the carrier up to 100 ml.
Five animals from each group were sacrificed at weekly or biweekly intervals, and the ventral prostate and seminal vesicles were excised, cleaned of fat and connective tissue, blotted on moist filter paper and weighed to the nearest 0.1 mg.
Ventral prostate weight was used as the endpoint because it is the sensitive organ to androgenic stimulation. Regression analysis was performed by conventional methods using the PROPHET data management system previously identified.
Immature (about 21-day-old) Sprague-Dawley rats were orchidectomized under anesthesia, and randomly assignee to groups of 40 or more. Animals received a single subcutaneous injection of 0.6 mg of the undecanoate in 0.2 ml of an aqueous suspending carrier and/or oily carrier (10% ethanol/90% sesame oil containing 5 mg/ml chlorobutanol as a preservative, or ethyloleate) on the date of the orchidectomy. The enanthate ester was formulated using the 10% ethanol/sesame oil or ethyloleate carrier as a first standard, with the 10% ethanol/sesame oil carrier used as a second standard.
In this example, the carrier used to provide the aqueous suspension was formulated as follows: 1 g benzyl alcohol, 0.5 g sodium carboxylethyl cellulose 50, 0.376 g disodium hydrogen phosphate dihydrate, 1.495 g sodium dihydrogen phosphate dihydrate, with water for injection (WFI) being added to bring volume of the carrier up to 100 ml.
Immature (about 21-day-old) Sprague-Dawley rats were orchidectomized under anesthesia, and randomly assignee to groups of 40 or more. […] The enanthate ester was formulated using the 10% ethanol/sesame oil or ethyloleate carrier as a first standard, with the 10% ethanol/sesame oil carrier used as a second standard.

In experiment [3] the test system is ventral prostate weight. Description: Oral androgenic potency, ventral prostate weight assay in orchidectomized immature rats (gavage daily for seven days). The conditions noted are these: for oral activity relative to methyltestosterone (potency ratio): oral administration, summary statement, standard methyltestosterone; for oral androgenic activity, times as potent as methyltestosterone: gavage daily for 7 days in 10% ethanol/sesame oil (oily carrier), ventral prostate weight. The method, then:
as §1, with “(oral)” for “(oral) or subcutaneous injection”, “mg. See, e.g., Hershberger, L. et al, Myotrophic Activity of 19-nortestosterone And Other Steroids Determined By Modified Levator And Muscle Method, Proc. Soc. Exptl. Biol. Med 83 175–180 (1953).” for “mg.”, “system. See, e.g., Bliss, C., The Statistics of Bioassay (Academic Press, New York, 1952); Hollister, C., Nucleic Acids Res. 16 1873–75 (1988).” for “system.”
as §1
Immature (about 21-day-old) Sprague-Dawley rats were orchidectomized under anesthesia, and randomly assignee to groups of ten animals for each dose level of the active undergoing testing. Four dosage forms were prepared. The first two forms constituted a solution of each active in 10% ethanol/sesame oil. The third and fourth dosage forms constituted a suspension of each active in an aqueous carrier (as described in Example 2, supra). These dosage forms were then administered by gavage (oral) to separate animal groups each day for seven days beginning on the date of the orchidectomy. Each carrier was also administered (alone) to separate groups of animals as a control. The animals were sacrificed 24 hours after the last dose, and the ventral prostate and seminal vesicles were excised, cleaned of fat and connective tissue, blotted on moist filter paper and weighed to the nearest 0.1 mg. See, e.g., Hershberger, L. et al, Myotrophic Activity of 19-nortestosterone And Other Steroids Determined By Modified Levator And Muscle Method, Proc. Soc. Exptl. Biol. Med. 83 175–180 (1953). Regression analysis was performed by conventional methods using a PROPHET data management system. See, e.g., Bliss, C., The Statistics of Bioassay (Academic Press, New York, 1952); Hollister, C., Nucleic Acids Res. 16 1873–75 (1988). Ventral prostate weight was used as the endpoint because it is the sensitive organ to androgenic stimulation.
Immature (about 21 day old) Sprague male rats were orchidectomized under anesthesia, and randomly assignee to groups often animals for each dose level of the active undergoing testing. Animals were maintained under standard conditions of housing and had free access to food and water. Illumination was controlled for 14 hour periods of light and 10 hours of darkness. Each active was dissolved in 10% ethanol/sesame oil and administered by gavage (oral) each day for seven days beginning on the date of the orchidectomy. […]

For `CCCC[C@H]1CC[C@H](C(=O)O[C@H]2CC[C@H]3[C@H]4[C@H](CC[C@]23C)[C@H]2CCC(=O)C=C2C[C@H]4C)CC1` [A, 7α-Methyl-19-nortestosterone-17β-bucyclate], the “Androgenic Potency (activity of corresponding alcohol)” value (from here on “Androgenic Potency”) in experiment [1] was 8.1^3.

On to `CCCCCCC(=O)O[C@H]1CC[C@H]2[C@@H]3CCC4=CC(=O)CC[C@]4(C)[C@H]3CC[C@]12C` [testosterone enanthate, reference compound], for which, in experiment [2] (single subcutaneous 0.6 mg in oily carrier), the “area under the curve (AUC, trapezoidal rule) of ventral prostate weight” value was determined as 513 mg-weeks.

As to `CCCCCCCCCCC(=O)O[C@H]1CC=C2[C@H]3[C@H]([C@@H](C)C[C@@]21C)[C@H]1CCC(=O)C=C1C[C@H]3C`, the “oral activity relative to methyltestosterone (potency ratio)” value in experiment [3] is reported as “at least about twice”.

As for `CCCCCCCCCCC(=O)O[C@H]1CC=C2[C@H]3[C@H]([C@@H](C)C[C@@]21C)[C@H]1CCC(=O)C=C1C[C@H]3C` [Compound IV, 7α,11β-dimethyl-17β-hydroxyestra-4,14-dien-3-one 17-undecanoate], the “oral androgenic activity, times as potent as methyltestosterone” value in experiment [3] was “about two to about nine times”. Further, the “duration of activity on parenteral administration (summary in words)” value in experiment [2] (parenteral administration, relative to other actives) is on record as “not long-acting”.

Take `CCCC[C@H]1CC[C@H](C(=O)O[C@H]2CC=C3[C@H]4[C@H](CC[C@@]32C)[C@H]2CCC(=O)C=C2C[C@H]4C)CC1` [CDB-4327A, 7α-Methyl-14-dehydro-19-nortestosterone-17β-bucyclate, reference compound]: the “ventral prostate weight over time after single subcutaneous injection (in words)” value in experiment [2] (0.6 mg in 0.2 ml oily carrier, up to 20 weeks, FIG. 9) is on record as “surprising stimulation of ventral prostate size over the entire 20-week observation period”.

For `CCCCC1CCC(C(=O)O[C@H]2CC=C3[C@H]4[C@H]([C@@H](C)C[C@@]32C)[C@H]2CCC(=O)C=C2C[C@H]4C)CC1` (stereo partly shown), in experiment [3], the “oral activity relative to methyltestosterone (potency ratio)” value is listed as “at least about six times”.

Turning to `CCCCC1CCC(C(=O)OC2CCCC3C4C(C)CC5=CC(=O)CCC5(C)C4CCC23C)CC1` [D, 7α-Methyl-D-homo-testosterone-17β-bucyclate], the “Androgenic Potency” value in experiment [1] was 36.4–61.7^3.

Turning to `C[C@@H]1CC2=CC(=O)CC[C@@H]2[C@@H]2[C@@H]1C1=CC[C@H](O)[C@@]1(C)C[C@@H]2C` [Compound III, 7α,11β-dimethyl-17β-hydroxyestra-4,14-dien-3-one], the “oral activity relative to methyltestosterone (potency ratio)” value in experiment [3] is on record as around 1.96.

With `CCCC[C@H]1CC[C@H](C(=O)O[C@H]2CC=C3[C@@H]4[C@H](C)CC5=CC(=O)CC[C@]5(C)[C@H]4CC[C@@]32C)CC1` [C, 7α-Methyl-14-dehydro-testosterone-17β-bucyclate], in experiment [1], the “Androgenic Potency” value was 61.1.

`CCCCC1CCC(C(=O)O[C@H]2CC=C3[C@H]4[C@H]([C@@H](C)C[C@@]32C)[C@H]2CCC(=O)C=C2C[C@H]4C)CC1` (stereo partly drawn) [Compound V, 7α,11β-dimethyl-17β-hydroxyestra-4,14-dien-3-one 17β-4-n-butylcyclohexanecarboxylate]: the “oral androgenic activity, times as potent as methyltestosterone” value in experiment [3] is listed as “about six to about eighteen times”. Also, in experiment [2] (0.6 mg in 0.2 ml aqueous vehicle), the “ventral prostate weight over time after single subcutaneous injection (in words)” value was “most dramatic increases and maintenance of ventral prostate weight”. The “AUC of ventral prostate weight, times greater than for testosterone enanthate in oily carrier” value in experiment [2] (active in aqueous vehicle versus testosterone enanthate in sesame oil/oily carrier, single subcutaneous 0.6 mg) is given as “about 3 times”. Moreover, the “area under the curve (AUC, trapezoidal rule) of ventral prostate weight” value in experiment [2] (single subcutaneous 0.6 mg in aqueous vehicle) came to 1521 mg-weeks.

`CCCCCCCCCCC(=O)O[C@H]1CC[C@H]2[C@H]3[C@H]([C@@H](C)C[C@]12C)[C@H]1CCC(=O)C=C1C[C@H]3C`: the “oral activity relative to methyltestosterone (potency ratio)” value in experiment [3] is on record as “about twice”.

Consider `CCCC[C@H]1CC[C@H](C(=O)O[C@H]2CC[C@H]3[C@H]4[C@H](CC[C@]23C)[C@H]2CCC(=O)C[C@@H]2C[C@H]4C)CC1` [B, 7α-Methyl-5α-dihydro-19-nortestosterone-17β-bucyclate], for which, in experiment [1], the “Androgenic Potency” value is reported as 1.2.

The record behind these values is patent US7196074B2, “Methods of making, using and pharmaceutical formulations comprising 7α, 11β-dimethyl-17β-hydroxyestra-4, 14-dien-3-one and 17 esters thereof” (The United States of America as represented by the …, priority 2000, dated 2007).
